Patent publication US10993919B2, “Chondroprotective nanoparticles for the treatment of osteoarthritis” (University of Florida Research Foundation, Inc., priority 2016, dated 2021)

System: fat pad-derived MSCs
Experiment: MSC migration in Boyden chamber plates
Format: cell-based
Conditions: MSCs isolated from the fat pad of the joint; preliminary
Description: To determine if there are inherent differences in the migratory activity of the different MSC populations, migration in response to serum is first evaluated using 96-well Boyden chamber plates. To simulate OA conditions, MSC migration is evaluated in response to IL-1β (10 ng/mL and 50 ng/mL), conditioned medium from the established OA cartilage explants, and conditioned medium from normal explants. Results from each group are compared with a positive control of media with 10% serum to determine if the experimental conditions increase or decrease migration of MSCs.
The response of MSCs to chondroinductive agents is evaluated, specifically platelet-derived growth factor (PDGF-BB) and kartogenin (KGN), which were selected based on their pleiotropic effects on promoting both migration and chondrogenesis of MSCs without adverse effects in the OA joint. PDGF-BB exerts chemotactic effects on bone marrow-derived MSCs, and facilitates new cartilage formation in the presence of IL-1β (Montaseri, A., et al. PloS one 6:e28663 (2011)). […] Kartogenin has been implicated in stimulating MSC recruitment in vivo, however, there are no reported migration studies with KGN, and therefore, the underlying mechanism for KGN-mediated recruitment is largely unknown. […]

Q: For “IL-1β: predominant pro-inflammatory cytokine in OA”, which MSC migration is on record?
A: may indeed inhibit migration
